# Source: patent US9745272B2, “Quinazoline-2,4(1 H,3H)-dione derivatives” (Hydra Biosciences, Inc., priority 2014, dated 2017)
# Legend:
# [1] = target: T1, TRPC5 channel (Homo sapiens, UniProt Q9UL62); assay: High throughput screening assay: Fluo4 cell-based fluorescence assay of intracellular Ca2+ rise in HEK293/TREx cells inducibly expressing TRPC5; details: Table 2, Ca2+ influx, 14 mM Ca2+
# T1 construct: expressed in transfected cells; host or cells: HEK293/TREx (Invitrogen), stably transfected, induced with tetracycline
# T1 sequence (Q9UL62 1-973): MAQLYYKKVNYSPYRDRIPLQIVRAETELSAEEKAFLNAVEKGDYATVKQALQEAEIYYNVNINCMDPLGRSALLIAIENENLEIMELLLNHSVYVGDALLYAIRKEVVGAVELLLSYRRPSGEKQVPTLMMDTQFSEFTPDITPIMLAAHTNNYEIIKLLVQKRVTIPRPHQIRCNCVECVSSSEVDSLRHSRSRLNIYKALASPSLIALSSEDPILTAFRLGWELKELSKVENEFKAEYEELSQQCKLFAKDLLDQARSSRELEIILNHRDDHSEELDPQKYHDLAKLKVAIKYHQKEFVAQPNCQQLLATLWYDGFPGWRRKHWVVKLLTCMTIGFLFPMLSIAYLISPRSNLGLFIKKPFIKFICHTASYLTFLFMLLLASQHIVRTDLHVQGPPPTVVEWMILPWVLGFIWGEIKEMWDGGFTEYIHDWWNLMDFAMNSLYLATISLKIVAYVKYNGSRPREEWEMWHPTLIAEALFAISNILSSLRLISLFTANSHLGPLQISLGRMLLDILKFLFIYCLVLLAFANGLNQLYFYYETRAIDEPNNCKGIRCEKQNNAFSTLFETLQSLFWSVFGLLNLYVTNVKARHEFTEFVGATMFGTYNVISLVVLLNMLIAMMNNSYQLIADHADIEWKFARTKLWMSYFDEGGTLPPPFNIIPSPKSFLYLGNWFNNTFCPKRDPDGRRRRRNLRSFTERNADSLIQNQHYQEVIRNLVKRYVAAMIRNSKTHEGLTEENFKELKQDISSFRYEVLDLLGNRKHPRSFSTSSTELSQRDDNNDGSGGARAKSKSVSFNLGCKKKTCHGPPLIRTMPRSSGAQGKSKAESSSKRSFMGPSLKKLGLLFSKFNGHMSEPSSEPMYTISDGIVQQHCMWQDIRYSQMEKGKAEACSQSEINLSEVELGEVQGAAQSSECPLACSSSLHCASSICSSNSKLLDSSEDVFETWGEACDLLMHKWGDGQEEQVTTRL
# Excerpt: The assay depended on detection of the rise in intracellular Ca2+ concentration ([Ca2+]i) following channel activation in cells inducibly expressing the TRPC5 channel. Ca2+ rise was quantified with the use of fluorescent Ca2+ indicators that were loaded into cells and thereafter indicated the [Ca2+]i Ca2+ influx followed activation of the TRPC5 channel. Compounds inhibiting the [Ca2+]i rise were considered hits for further investigation.
# The commercially available HEK293/TREx line (Invitrogen) was stably transfected with a TRPC5 construct and screened by conventional calcium imaging to find clones with TRPC5 expression following stimulation with 1 μg/ml tetracycline. These cells were maintained in the growth medium recommended by the manufacturer supplemented with 100 μg/ml hygromycin to promote retention of the TRPC5 construct. After growing to near confluency, cells were plated at a density of ˜35,000 cells/well in 384 well CellBind plates (Corning) in the presence of 1 μg/ml tetracycline, and allowed to grow for 20-30 hrs. A nearly confluent monolayer resulted. Cells were then loaded with Ca2+ dye: Fura-2/AM or Fluo4/AM was added to the wells to a final concentration of 4 μM or 0.5 μM, respectively, and incubated for 80 min or 60 min, respectively, at room temperature. Supernatant was then removed from the cells by inverting plates with a sharp flick, and 25 μl Hank's Balanced Salt Solution (HBSS; 0.185 g/l D-glucose, 0.9767 g/l MgS04 (anhydrous), 0.4 g/l KCl, 0.06 g/l KH2PO4 (anhydrous), 0.35 g/l NaHCO3, 8.0 g/l NaCl, and 0.04788 g/l Na2HPO4 (anhydrous); pH 7.4) was then added to each well. Following ˜0.5 hour for recovery from loading, cells were assayed using the Hamamatsu FDSS 6000 system, which permitted illumination alternately at 340 nm and 380 nm for Fura-2 experiments, or at 485 nm for Fluo4 experiments. Frames were acquired at a rate of 0.2 Hz. During the assay, the plates were continuously vortexed, with pipette mixing of wells following addition of each reagent. For the screening assay, 26 μl of a diluted compound stock (at 50 μM) was added to each well for 2 minutes following the collection of a short (4 frame) baseline. 13 μl 62 mM high-Ca2+ Ringer solution (4.17 ml of normal ringer (with 2 mM Ca2+) plus 5.83 ml of isotonic calcium ringer (105 mM Ca2+; in this ringer all sodium has been replaced with calcium)) was then added to each well, achieving a final concentration of 14 mM Ca2+ and 10 μM test compound. Data was collected for ˜3 minutes following addition of high Ca2+ Ringer, where the fluorescent intensity (for Fluo4) and the F340/F380 ratio (for Fura-2) were proportional to the [Ca2+]i Negative controls consisted of HEK293/TREx TRPC5 cells exposed to high Ca2+ solution, but no compound. Positive control conditions consisted of addition of 2-APB, a promiscuous blocker of TRPC5 and other channels, to columns 23 and 24 of the plates, to a final concentration of 200 μM. These controls defined a screening window, and “hits” were defined as those compounds inhibiting the fluorescence response by at least 40%. IC50 values were determined for compounds defined as “hits.” The Fluo4 cell-based fluorescence assay was used to determine the intracellular Ca2+ concentration in the presence of varying drug concentration. Final concentrations of compounds tested were 20 μM, 6.667 μM, 2.222 μM, 0.741 μM, 0.247 μM, 0.082 μM, and 0.027 μM. Compounds were tested in triplicate at all concentrations. Standard software was used to fit IC50 curves. […]
# [2] = target: T1, TRPC5 channel; assay: Whole-cell patch clamp experiments, TRPC5 current activated by LaCl3 in TRPC5-expressing HEK293 TREx cells; format: cell-based; details: Table 3, block of TRPC5 current in continued presence of LaCl3, IC50 estimated
# Excerpt: Patch clamp experiments permit the detection of currents through the TRPC5 channel in the cell line described above. In normal whole-cell patch clamp recordings, a glass electrode is brought into contact with a single cell and a high-resistance (gigaohm) seal is established with the cell membrane. The membrane is then ruptured to achieve the whole-cell configuration, permitting control of the voltage of the cell membrane and measurement of currents flowing across the membrane using the amplifier attached to the electrode and resulting in the replacement of cytoplasm with the pipette solution. A perfusion system permits control of the extracellular solution, including the addition of blockers and activators of the current. The current can be activated by including 1.4 μM free Ca^2+ in the pipette (intracellular) solution, and 80 μM LaCl3 in the extracellular solution.
# TRPC5 cells were induced 20-48 hours, removed from growth plates, and replated at low density (to attain good single-cell physical separation) on glass coverslips for measurement. In some cases, cells were grown in low density overnight on glass coverslips. Patch clamp recordings were made in the whole-cell mode with a holding potential of −40 mV. Every 5 seconds, a voltage ramp was applied from −120 to +100 mV, 400 ms in duration. Currents elicited were quantified at −80 mV and +80 mV. The internal solution consisted of 140 mM cesium aspartate, 10 mM HEDTA, 2 mM CaCl2, 2.27 mM MgCl2 and 10 mM HEPES, pH 7.2, with 1,400 nM calculated free Ca^2+. The external solution consisted of 150 mM NaCl, 4.5 mM KCl, 1 mM MgCl2, 2 mM CaCl2, 10 mM HEPES, 10 mM glucose, 1 mM EGTA, pH 7.4. Upon addition of LaCl3, TRPC5 current was induced only in TRPC5-expressing cells and not in parental HEK293 TREx cells. Removal of the LaCl3 stimulus causes most of the current to go away. Potential blockers were tested for ability to block both inward and outward currents in the continued presence of LaCl3.
# IC50 of a compound of Formula (I) was estimated by testing the compound at 5 μM and 500 nM. […] IC50 for a compound of Formula (I) between 500 nM and 5 μM was similarly estimated.
SMILES,IC50 [1],IC50 [2]
COc1ccc2c(c1Cc1ccccc1)c(=O)n(CCCO)c(=O)n2C [Compound 2],27 nM,
"Cn1c(=O)n(CCCO)c(=O)c2c(Cc3ccccc3)c(Oc3cccc(Cl)c3)ccc21 [Compound 3, 5-benzyl-6-(3-chlorophenoxy)-3-(3-hydroxypropyl)-1-methylquinazoline-2,4(1H,3H)-dione]",395 nM,2.1 nM
"Cn1c(=O)n(CCCO)c(=O)c2c(Cc3ccc(Cl)cc3)c(Oc3cccc(OC(F)(F)F)c3)ccc21 [Compound 4, 5-(4-chlorobenzyl)-3-(3-hydroxypropyl)-1-methyl-6-(3-(trifluoromethoxy)phenoxy)quinazoline-2,4(1H,3H)-dione]",,1.52 nM
"Cn1c(=O)n(CCCO)c(=O)c2c(Cc3ccc(F)cc3)c(Oc3cccc(OC(F)(F)F)c3)ccc21 [Compound 6, 5-(4-fluorobenzyl)-3-(3-hydroxypropyl)-1-methyl-6-(3-(trifluoromethoxy)phenoxy)quinazoline-2,4(1H,3H)-dione]",61 nM,1.77 nM
"CCCOc1ccc2c(c1Cc1ccc(F)cc1)c(=O)n(CCCO)c(=O)n2C [Compound 8, 5-(4-fluorobenzyl)-3-(3-hydroxypropyl)-1-methyl-6-propoxyquinazoline-2,4(1H,3H)-dione]",1.71 nM,2 nM
"CCCOc1ccc2c(c1Cc1ccc(Cl)cc1)c(=O)n(CCCO)c(=O)n2C [Compound 10, 5-(4-chlorobenzyl)-3-(3-hydroxypropyl)-1-methyl-6-propoxyquinazoline-2,4(1H,3H)-dione]",,4.3 nM
"CCOc1ccc2c(c1Cc1ccc(Cl)cc1)c(=O)n(CCCO)c(=O)n2C [Compound 11, 5-(4-chlorobenzyl)-6-ethoxy-3-(3-hydroxypropyl)-1-methylquinazoline-2,4(1H,3H)-dione]",,4.2 nM
"Cn1c(=O)n(CCCO)c(=O)c2c(Cc3ccccc3)c(-c3cccc(OC(F)(F)F)c3)ccc21 [Compound 13, 5-benzyl-3-(3-hydroxypropyl)-1-methyl-6-(3-(trifluoromethoxy)phenyl)quinazoline-2,4(1H,3H)-dione]",31.2 nM,
